The values that follow come from patent US6392083B1, “Process for producing salts of cyanobenzylamines” (Showa Denko K.K., priority 1999, dated 2002).

Data set [1] is described as follows: Bulk density measured with Powder-tester Type PT-N. To be noted: dried salt powder; Powder-tester Type PT-N (Hosokawa Micron); hydrochloride. Type of data set: physicochemical. As for the experimental part: The bulk density was measured with a Powder-tester Type PT-N (product of Hosokawa Micron).
On data set [2], the source says: These two compounds are difficult to separate through distillation due to the small difference between their respective boiling points.

Take `Cl.N#Cc1ccc(CN)cc1` [Example 7, p-cyanobenzylamine hydrochloride]: in data set [1], the bulk density amounted to 0.5 g/mL.

Consider `Cl.N#Cc1ccc(CN)cc1` [Comparative Example, p-Cyanobenzylamine hydrochloride, reference compound], for which the bulk density in data set [1] amounted to 0.2 g/mL.

Turning to `Cl.N#Cc1ccc(CN)cc1` [p-cyanobenzylamine hydrochloride], the water solubility entry in data set [2] is “much lower than that of p-xylylenediamine hydrochloride”.

`Cl.N#Cc1ccc(CN)cc1` [Example 1, p-cyanobenzylamine hydrochloride]: the bulk density in data set [1] stood at 0.3 g/mL.
